How the values were obtained:
Goblet cells = Goblet cells in vitro; Lethem et al. 1993; cited from earlier work
HT-29 cells [1] = conditions: Otero et al. Mol Cell Biochem 2000; cited from earlier work
T84 cells = assay: Intracellular calcium mobilization (Fluo-3 AM, FLIPR) in T84 cells; type: cell-based; conditions: T84 human colonic epithelial cell line; FIG. 5
Excerpt: In addition, the pharmaceutical utility of P2Y agonist compounds of this invention are indicated by the intracellular calcium mobilization assay for P2Y activity. In this assay, cultured cells are stimulated with the increasing concentrations of P2Y receptor agonists. Intracellular calcium levels are monitored by measuring the changes in fluorescence intensity of a calcium-sensitive dye using the FLIPR (Molecular Devices Corp., Sunnyvale, Calif.) or equivalent instrumentation. A conventional technique is used to detect intracellular calcium mobilization induced by P2Y receptor agonists. The technique is familiar to those well versed in the art. Cells are seeded in 96-well plates and used for calcium mobilization assays. On the day of the assay, the growth medium is aspirated and replaced with a solution of Fluo-3 AM (2.5 μM final concentration) in an assay buffer consisting of (mM): KCI (10.0), NaCl (118), CaCl2(2.5), MgCl2 (1.0), HEPES (20), glucose (10), pH 7.4. Probenecid (Sigma Chemical Co.) is added to the dye load and dye wash medium at a working concentration of 2.5mM to increase dye retention in the cells. After a 60 minute incubation with Fluo-3 AM at 25° C., cells are washed free of dye (Columbus Plate Washer, TECAN U.S., Inc., Research Triangle Park, N.C.) and are stimulated with increasing concentrations of P2Y receptor agonists. Intracellular calcium levels are simultaneously monitored in each well by measuring the changes in fluorescence intensity using the FLIPR (Molecular Devices Corp., Sunnyvale, Calif.). T84 cells, a human colonic epithelial cell line, were subjected to the calcium mobilization assay described above. […] The activation of intracellular calcium mobilization by ATP and UTP in T84 and HT-29 cells indicate the pharmaceutical utility of P2Y receptor agonists in the gastrointestinal tract.

HT-29 cells [2] = assay: Intracellular calcium mobilization (Fluo-3 AM, FLIPR) in HT-29 cells; type: cell-based; conditions: human colonic HT-29 cells; FIG. 6
Excerpt: In addition, the pharmaceutical utility of P2Y agonist compounds of this invention are indicated by the intracellular calcium mobilization assay for P2Y activity. In this assay, cultured cells are stimulated with the increasing concentrations of P2Y receptor agonists. Intracellular calcium levels are monitored by measuring the changes in fluorescence intensity of a calcium-sensitive dye using the FLIPR (Molecular Devices Corp., Sunnyvale, Calif.) or equivalent instrumentation. A conventional technique is used to detect intracellular calcium mobilization induced by P2Y receptor agonists. The technique is familiar to those well versed in the art. Cells are seeded in 96-well plates and used for calcium mobilization assays. On the day of the assay, the growth medium is aspirated and replaced with a solution of Fluo-3 AM (2.5 μM final concentration) in an assay buffer consisting of (mM): KCI (10.0), NaCl (118), CaCl2(2.5), MgCl2 (1.0), HEPES (20), glucose (10), pH 7.4. Probenecid (Sigma Chemical Co.) is added to the dye load and dye wash medium at a working concentration of 2.5mM to increase dye retention in the cells. […] Intracellular calcium levels are simultaneously monitored in each well by measuring the changes in fluorescence intensity using the FLIPR (Molecular Devices Corp., Sunnyvale, Calif.). […]

Compound	rate and total amount of mucin secretion (Goblet cells)	calcium mobilization (HT-29 cells [1])	calcium mobilization (T84 cells)	calcium mobilization (P2Y response) (HT-29 cells [2])
O=c1ccn([C@@H]2O[C@H](COP(=O)(O)OP(=O)(O)OP(=O)(O)O)[C@@H](O)[C@H]2O)c(=O)[nH]1 [UTP, uridine 5′-triphosphate]	increase both the rate and total amount of mucin secretion	stimulated calcium mobilization	stimulate calcium mobilization	robust P2Y response
CSc1nc(N)c2ncn([C@@H]3O[C@H](COP(=O)(O)OP(=O)(O)O)[C@@H](O)[C@H]3O)c2n1 [2-methylthioADP]	–	–	did not simulate calcium mobilization	–
Nc1ncnc2c1ncn2[C@@H]1O[C@H](COP(=O)(O)OP(=O)(O)OP(=O)(O)O)[C@@H](O)[C@H]1O [ATP, 5′-adenosine triphosphate]	–	–	stimulate calcium mobilization	robust P2Y response
